Results as given in patent publication US20120309704A1, “COMPOSITIONS FOR TREATMENT OF CHEMORESISTANT AND/OR POTENTIALLY CHEMORESISTANT LEUKAEMIAS” (priority 2009, published 2012).

What was measured:
[1] = test system: ALL cell lines REH, RS4, 11 and 697 and primary ALL cells; test: MSC-mediated chemoresistance of ALL cell lines and primary ALL cells; format: cell-based, human
Method: FIG. 4. hERG1 activity regulates the chemoresistance induced by stromal cells in leukaemic cells a). […] The percentage of Annexin V +/ PI− cells was evaluated after 48 hours of culture.
For cell counting, after 48 hours of incubation at 37° C. and 5% di CO2, cells were recovered from the plates. We next evaluated the apoptosis. During apoptosis, a series of changes of plasma membrane occurs, one of these alterations of plasma membrane is the shift of phosphatidylserine (PS) from the inner to the outer surface of the cell. The recognition of PS by macrophage allows them to engulf the apoptotic cell, preventing the inflammatory process. The analysis of PS on the plasma membrane of apoptotic cells is performed by using annexin V-fluorescein and propidium iodide (PI) assay (Annexin-V-Fluos Staining Kit, Roche).
We then identified three cell populations: i) viable cells (annexin V-/propidium iodide-), ii) apoptotic cells (early apoptosis) (annexin V+), and iii) cells in late apoptosis or necrotic (annexin V+/propidium iodide+). All the cell lines (697, RS, REH) were cultured in the absence and in the presence of human bone marrow stromal cells (MSC) in order to reproduce as closely as possible the condition that occurs in the bone marrow.
After 48 hours of incubation, cells were separated from the stroma and processed for the analysis of apotosis.

[2] = test system: ALL(3), ALL(4), ALL(6) cells; test: Annexin V/propidium iodide apoptosis of primary ALL cells cultured in the absence or presence of MSC; format: cell-based, human; conditions: FIG. 1C, co-culture with stromal cells
Method: The analysis is performed with the flow cytometer FACScan (Becton Dickinson). […] We next evaluated the apoptosis. […] The analysis of PS on the plasma membrane of apoptotic cells is performed by using annexin V-fluorescein and propidium iodide (PI) assay (Annexin-V-Fluos Staining Kit, Roche). The protocol of annexin requie, first, the preparation of the reaction mix, containing 20 μl of annexin and 20 μl of propidium iodide diluted in 1 ml of incubation buffer (1 ml of such mix is enough for 10 samples). About 10^6 cells are washed with PBS and centrifuged at 200 g for 5 minutes; the cell pellet is then resuspend in 100 μl of the solution previously described and incubated for 10-15 min at 15-25° C. The samples are resuspended in 500 μl of incubation buffer, before proceeding to flow cytometry analysis. […] After 48 hours of incubation, cells were separated from the stroma and processed for the analysis of apotosis.

[3] = test system: AML cell lines and primary samples; conditions: administration of hERG1 blockers; cited from earlier work
[4] = test system: human leukaemic cells REH; test: In vivo model of human leukaemia: REH cells inoculated into NOD/SCID mice
Method: FIG. 2. Effect of corticosteroids, inhibitors of hERG1 and of the combination corticosteroids/hERG1 inhibitors in an in vivo model of human leukaemia disease (human leukaemic cells REH inoculated into NOD/SCID mice). Cells were inoculated by injection into the caudal vein and seven days after the inoculum, animals were treated with E4031, Dexamethasone, Dexamethasone+E4031 for two weeks; control mice were treated, with the same schedule, solely with saline solution. At the end of the two weeks of treatment, animals were sacrificed and the spleen and bone marrow were removed. Bone marrow engraftment was evaluated by measuring the percentage of hCD45^+ cells versus mCD45^+ cells by flow cytometry. For the evaluation of apoptosis, the Tunel assay was performed on the histological sections of the treated animals.
In FIG. 2 the effects of corticosteroids, hERG1 inhibitors and combination of corticosteroids/hERG1 inhibitors in an in vivo model of human leukaemic disease (human leukaemic cells REH inoculated in NOD / SCID mice) is shown. The cells were inoculated by injection into the tail vein and seven days after injection, the animals were treated with E4031, dexamethasone, dexamethasone+E4031 for two weeks; the control mice were treated, according to the same protocol, only with saline.
At the end of two weeks of treatment the animals were sacrificed and the spleens and bone marrows were removed. The bone marrow engraftment was assessed by measuring the percentage of hCD45+cells versus mCD45+cells by flow cytometry. The Tunel assay for evaluation of apoptosis was performer on bone marrow histological sections from the control and treated animals.

Compound: CC[C@H]1OC(=O)[C@H](C)[C@@H](O[C@H]2C[C@@](C)(OC)[C@@H](O)[C@H](C)O2)[C@H](C)[C@@H](O[C@@H]2O[C@H](C)C[C@H](N(C)C)[C@H]2O)[C@](C)(O)C[C@@H](C)C(=O)[C@H](C)[C@@H](O)[C@]1(C)O [erythromycin, 6-(4-dimethylamino-3-hydroxy-6-methyl-Ossan-2-yl) oxy-14-ethyl-7,12,13-triidrossi-4-(5-hydroxy-4 methoxy-4,6-dimethyl -Ossan-2-yl) oxy-3,5,7,9,11,13-esametil ossaciclotetradecan-1-2,10-dione]
- MSC mediated chemoresistance [1]: overcome

Compound: COc1cccc2c1C(=O)c1c(O)c3c(c(O)c1C2=O)C[C@@](O)(C(=O)CO)C[C@@H]3O[C@H]1C[C@H](N)[C@H](O)[C@H](C)O1 [doxorubicin]
- responsiveness of leukaemic cells co-cultured with stromal cells compared to leukaemic cells alone [2]: significantly less responsive

Compound: O=C1NCCN1CCN1CCC(c2cn(-c3ccc(F)cc3)c3ccc(Cl)cc23)CC1 [sertindole, 1-(2-{4-[5-chloro-1-(4-FLUORO-PHENYL)-1H-indole-3-IL]-IL-1-Piperidine}-ethyl)-imidazolidin-2-ONE, 1-[2-[4-[5-Chloro-1-(4-fluorophenyl)-1H-indole-3-a]-1-piperidinyl]ethyl]-2-Imidazolidinone]
- MSC mediated chemoresistance [1]: overcome

Compound: CN(CCN(C)S(=O)(=O)c1ccc(NS(C)(=O)=O)cc1)c1nc2ccccc2n1C.Cl [Way 123,398, N-metil-N-(2-(metil(1-metil-1H-benzimidazol-2-il)amino)etil)((metilsolfonil)amino)benzensolfonammide HCl]
- MSC mediated chemoresistance [1]: overcome
- cellular growth [3]: impairs cellular growth

Compound: Cc1cccc(CCN2CCC(C(=O)c3ccc(NS(C)(=O)=O)cc3)CC2)n1.Cl.Cl [E4031, N-[4-[[1-[2-(6-Methyl-2-pyridyl)ethyl]-4-piperidinyl]carbonyl]phenyl]metanesolfonammide dihydrochloride]
- MSC mediated chemoresistance [1]: overcome
- effect on engraftment compared with dexamethasone alone [4]: higher than that produced by dexamethasone alone
- apoptosis of ALL cells in the bone marrow ([4]; Tunel assay): increase
- engraftment in the bone marrow ([4]; treatment for two weeks starting seven days after inoculum, hCD45+ versus mCD45+ cells): reduced
